This is an account of results in patent US12359121B2, “Neutral fluorescent mitochondrial marker as amide derivative, and preparation method and use thereof” (SOOCHOW UNIVERSITY, priority 2021, dated 2025).

The nature of series [1]: Photo stability under iodine tungsten lamp irradiation (residual absorptivity). In kind it is physicochemical. Particulars: 10 μM in acetonitrile; 6 hrs continuous irradiation, 500 W iodine tungsten lamp, 25 cm. How it is done: The photo stability of dyes 2a-2e, and 3a-e (with a concentration of 10 μM) prepared above was tested. Corresponding weights of dyes 2a-2e and 3a-e and their references coumarin and Nile red were weighed, and dissolved in acetonitrile (at a concentration of 10 μM) respectively. All the samples were irradiated with a Philips iodine tungsten lamp (500 W), and the distance between the lamp and the sample was set to 25 cm. An 8 cm-thick NaNO2 (60 g·L^−1) cold trap was positioned between the lamp and the sample, to eliminate heat and short-wavelength light. The irradiation was continued for 6 hrs, during which the ultraviolet fluorescence was tested every half an hour. After 6 hrs, the light stability was measured by residual absorptivity calculated based on the change in the absorption intensity at various times before and after the irradiation. […] The residual absorptivity of dyes 2a-e, and 3a-e is 2a: 93%, 2b: 92%, 2c: 95%, 2d: 91%, 2e: 97%, 3a: 93%, 3b: 92%, 3c: 94%, 3d: 93%, 3e: 92%. It can be seen that dyes 2a-2e and 3a-e have higher photo stability.

Series [2] deals with mitochondria in HeLa cells. As to the kind of experiment: Colocalization imaging with red mitochondrial marker Mito Tracker Red CMXRos, laser confocal microscope. It counts as cell-based. The conditions noted are these: 2 μM; for mitochondria labeling ability: blue channel; for colocalization coefficient: versus Mito Tracker Red CMXRos (100 nm). How it is done:
To test the fluorescent labeling ability of Compound 2a compared with commercial mitochondrial markers, dye 2a was formulated into a mother liquor in DMSO (dimethyl sulfoxide), and then added to a conventional cell culture medium to give a concentration of dye 2a in the cell culture medium of 2 μM. HeLa cells were co-cultured for 10 min in an incubator at saturated humidity, 37° C., and 5% CO2 (the experiment was same below). The red mitochondrial marker Mito Tracker© Red CMXRos (100 nm) was added, and the cells were co-incubated for another 10 min, washed three times with a PBS buffer, and imaged under a laser confocal microscope. In the blue channel, light of 405 nm was used for excitation, and a fluorescence signal in the range of 410-500 nm was collected; and in the red channel, light of 561 nm was used for excitation, and a fluorescence signal in the range of 570-750 nm was collected.
The experiment method with dye 2b (2 μM), dye 2c (2 μM), dye 2d (2 μM), and dye 2e (2 μM) was the same with that with dye 2a, except that dye 2a was replaced.

Series [3] is described as follows: Ultraviolet-visible absorption and fluorescence emission in chloroform. In kind it is physicochemical. Particulars: 10 μM in chloroform; for maximum emission wavelength (highest fluorescence intensity): excitation 380-385 nm, slit 3 nm/1.5 nm (2a-e), excitation 545-550 nm, slit 1.5 nm/3 nm (3a-e). Here is the method: The ultraviolet absorption and fluorescence emission of the dyes prepared above (at a concentration of 10 μM) in chloroform were tested. The horizontal ordinate is the wavelength, and the vertical ordinate is the absorbance and fluorescence intensity, respectively.
In the ultraviolet-visible absorption spectrum, dye 2a has the maximum absorption at 388 nm; and in the fluorescence spectrum, dye 2a has the highest fluorescence intensity at 457 nm, where the excitation wavelength is 380 nm, and the slit width is 3 nm/1.5 nm. In the ultraviolet-visible absorption spectrum, dye 2b has a maximum absorption wavelength of 386 nm; and in the fluorescence spectrum, dye 2b has a maximum emission wavelength of 459 nm, where the excitation wavelength is 385 nm, and the slit width is 3 nm/1.5 nm. In the ultraviolet-visible absorption spectrum, dye 2c has a maximum absorption wavelength of 385 nm; and in the fluorescence spectrum, dye 2c has a maximum emission wavelength of 455 nm, where the excitation wavelength is 380 nm, and the slit width is 3 nm/1.5 nm. In the ultraviolet-visible absorption spectrum, dye 2d has the maximum absorption at 380 nm; and in the fluorescence spectrum, dye 2d has the highest fluorescence intensity at 457 nm, where the excitation wavelength is 380 nm, and the slit width is 3 nm/1.5 nm. In the ultraviolet-visible absorption spectrum, dye 2e has a maximum absorption wavelength of 385 nm; and in the fluorescence spectrum, dye 2e has a maximum emission wavelength of 458 nm, where the excitation wavelength is 385 nm, and the slit width is 3 nm/1.5 nm. In the ultraviolet-visible absorption spectrum, dye 3a has the maximum absorption at 554 nm; and in the fluorescence spectrum, dye 3a has the highest fluorescence intensity at 604 nm, where the excitation wavelength is 550 nm, and the slit width is 1.5 nm/3 nm. In the ultraviolet-visible absorption spectrum, dye 3b has a maximum absorption wavelength of 552 nm; and in the fluorescence spectrum, dye 3b has a maximum emission wavelength of 597 nm, where the excitation wavelength is 550 nm, and the slit width is 1.5 nm/3 nm. In the ultraviolet-visible absorption spectrum, dye 3c has a maximum absorption wavelength of 552 nm; and in the fluorescence spectrum, dye 3c has a maximum emission wavelength of 621 nm, where the excitation wavelength is 550 nm, and the slit width is 1.5 nm/3 nm. In the ultraviolet-visible absorption spectrum, dye 3d has a maximum absorption wavelength of 551 nm; and in the fluorescence spectrum, dye 3d has a maximum emission wavelength of 607 nm, where the excitation wavelength is 545 nm, and the slit width is 1.5 nm/3 nm. In the ultraviolet-visible absorption spectrum, dye 3e has a maximum absorption wavelength of 553 nm; and in the fluorescence spectrum, dye 3e has a maximum emission wavelength of 585 nm, where the excitation wavelength is 550 nm, and the slit width is 1.5 nm/3 nm. The above UV absorption and fluorescence emission test methods are conventional methods.

Series [4] deals with mitochondria in HeLa cells. As to the kind of experiment: Colocalization imaging with green mitochondrial marker Mito Tracker Green FM, laser confocal microscope. In kind it is cell-based. Particulars: 2 μM; for mitochondria labeling ability: red channel; for colocalization coefficient: versus Mito Tracker Green FM (100 nm). Here is the method: Dye 3a was formulated into a mother liquor in DMSO (dimethyl sulfoxide), and then added to a conventional cell culture medium to give a concentration of dye 3a in the cell culture medium of 2 μM. HeLa cells were co-cultured for 10 min in an incubator at saturated humidity, 37° C., and 5% CO2 (the experiment was same below). The green mitochondrial marker Mito Tracker® Green FM (100 nm) was added, and the cells were co-incubated for another 10 min, washed three times with a PBS buffer, and imaged under a laser confocal microscope. In the red channel, light of 561 nm was used for excitation, and a fluorescence signal in the range of 570-750 nm was collected. In the green channel, light of 488 nm was used for excitation, and a fluorescence signal in the range of 500-550 nm was collected.
The experiment method with dye 3b (2 μM), dye 3c (2 μM), dye 3d (2 μM), and dye 3e (2 μM) was the same with that with dye 3a, except that dye 3a was replaced.

SMILES strings stand for the structures.

`CCN(CC)c1ccc2nc3c4ccccc4c(=O)cc-3oc2c1` [Nile Red, Nile red, reference compound] gave a residual absorptivity in series [1] of 97%.

On to `O=c1ccc2ccccc2o1` [coumarin, reference compound], for which the residual absorptivity in series [1] turned out to be 94%.

In turn, `CCN(CC)c1ccc2c(C)c(-c3ccc(C(N)=O)cc3)c(=O)oc2c1` [dye 2a] yielded a residual absorptivity in series [1] of 93%. Besides, in series [2], the mitochondria labeling ability entry is reported as “has mitochondria labeling ability” and the colocalization coefficient is on record as 0.88. Moreover, in series [3], the maximum absorption wavelength is on record as 388 nm and the “maximum emission wavelength (highest fluorescence intensity)” value (“maximum emission wavelength” below) is reported as 457 nm.

Consider `CCN(CC)c1ccc2c(C)c(-c3ccc(C(=O)NC)cc3)c(=O)oc2c1` [dye 2b], for which the residual absorptivity in series [1] is on record as 92%. Also, in series [2], the mitochondria labeling ability result was “have mitochondria labeling ability” and the colocalization coefficient is on record as 0.94. Besides, in series [3], the maximum absorption wavelength turned out to be 386 nm and the “maximum emission wavelength” value came out at 459 nm.

For the compound `CCN(CC)c1ccc2c(C)c(-c3ccc(C(=O)N(C)C)cc3)c(=O)oc2c1` [dye 2c], in series [1], the residual absorptivity came out at 95%. Moreover, in series [2], the mitochondria labeling ability result is on record as “have mitochondria labeling ability” and the colocalization coefficient is 0.88. Also, in series [3], the maximum absorption wavelength is reported as 385 nm and the “maximum emission wavelength” value turned out to be 455 nm.

Compound `CCN(CC)c1ccc2c(C)c(-c3ccc4c(c3)CC(=O)N4)c(=O)oc2c1` [dye 2d] had a residual absorptivity in series [1] of 91%. Further, in series [2], the mitochondria labeling ability result is recorded as “have mitochondria labeling ability” and the colocalization coefficient came to 0.92. In addition, in series [3], the maximum absorption wavelength is given as 380 nm and the “maximum emission wavelength” value is on record as 457 nm.

`CCN(CC)c1ccc2c(C)c(-c3ccc4c(c3)CCC(=O)N4)c(=O)oc2c1` [dye 2e] returned a residual absorptivity in series [1] of 97%. In series [2], the mitochondria labeling ability entry is “have mitochondria labeling ability” and the colocalization coefficient is reported as 0.91. In series [3], the maximum absorption wavelength is on record as 385 nm and the “maximum emission wavelength” value is 458 nm.

In turn, `CCN(CC)c1ccc2nc3c4ccc(-c5ccc(C(N)=O)cc5)cc4c(=O)cc-3oc2c1` [dye 3a] yielded a residual absorptivity in series [1] of 93%. Also, in series [3], the maximum absorption wavelength was determined as 554 nm and the “maximum emission wavelength” value came to 604 nm. Besides, in series [4], the mitochondria labeling ability result is recorded as “has mitochondria labeling ability” and the colocalization coefficient was 0.94.

`CCN(CC)c1ccc2nc3c4ccc(-c5ccc(C(=O)NC)cc5)cc4c(=O)cc-3oc2c1` [dye 3b] came in with a residual absorptivity in series [1] of 92%. Moreover, in series [3], the maximum absorption wavelength is on record as 552 nm and the “maximum emission wavelength” value is recorded as 597 nm. In series [4], the mitochondria labeling ability result is recorded as “has mitochondria labeling ability” and the colocalization coefficient was found to be 0.88.

The compound `CCN(CC)c1ccc2nc3c4ccc(-c5ccc(C(=O)N(C)C)cc5)cc4c(=O)cc-3oc2c1` [dye 3c] registered a residual absorptivity in series [1] of 94%. Besides, in series [3], the maximum absorption wavelength worked out at 552 nm and the “maximum emission wavelength” value amounted to 621 nm. Moreover, in series [4], the mitochondria labeling ability entry is “has mitochondria labeling ability” and the colocalization coefficient is 0.94.

For the compound `CCN(CC)c1ccc2nc3c4ccc(-c5ccc6c(c5)CC(=O)N6)cc4c(=O)cc-3oc2c1` [dye 3d], the residual absorptivity in series [1] amounted to 93%. In series [3], the maximum absorption wavelength turned out to be 551 nm and the “maximum emission wavelength” value was determined as 607 nm. Moreover, in series [4], the mitochondria labeling ability result is “has mitochondria labeling ability” and the colocalization coefficient was 0.96.

`CCN(CC)c1ccc2nc3c4ccc(-c5ccc6c(c5)CCC(=O)N6)cc4c(=O)cc-3oc2c1` [dye 3e] yielded a residual absorptivity in series [1] of 92%. Besides, in series [3], the maximum absorption wavelength amounted to 553 nm and the “maximum emission wavelength” value is 585 nm. In series [4], the mitochondria labeling ability result is recorded as “has mitochondria labeling ability” and the colocalization coefficient was found to be 0.92.
